Data taken from BindingDB's records for doi:10.1016/0960-894X(96)00174-6 (n/a, 1996).

Molecular target: T1, 5-hydroxytryptamine receptor 2C (Homo sapiens, UniProt P28335)
T1 sequence (P28335 whole entry): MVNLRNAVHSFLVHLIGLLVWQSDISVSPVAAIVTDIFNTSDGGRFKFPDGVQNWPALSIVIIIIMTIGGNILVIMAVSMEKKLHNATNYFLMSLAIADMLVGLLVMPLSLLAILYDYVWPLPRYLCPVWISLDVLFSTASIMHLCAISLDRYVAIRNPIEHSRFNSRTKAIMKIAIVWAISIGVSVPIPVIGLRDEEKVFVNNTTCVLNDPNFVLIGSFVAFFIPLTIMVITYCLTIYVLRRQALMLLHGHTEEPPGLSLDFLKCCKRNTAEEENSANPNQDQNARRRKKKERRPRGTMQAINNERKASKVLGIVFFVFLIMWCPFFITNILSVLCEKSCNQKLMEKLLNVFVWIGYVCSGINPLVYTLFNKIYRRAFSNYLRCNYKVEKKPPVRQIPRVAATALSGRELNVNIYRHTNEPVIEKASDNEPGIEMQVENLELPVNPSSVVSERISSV
Assay: ChEBML_3050
Excerpt: Binding affinity towards 5-hydroxytryptamine 2C receptor by displacement of [3H]N-methyl-mesulergine

| Compound | IC50 |
| --- | --- |
| CCCN(CCCCN1C(=O)CC2(CCCC2)CC1=O)CC1COc2cccc(OC)c2C1 (stereo not drawn) | 3.16 µM |
| COc1cccc2c1CC(CNCCCCN1C(=O)CC3(CCCC3)CC1=O)CO2 (stereo not drawn) | 0.169 µM |
| CCCN(CCC)CC1(N(CCC)CCC)COc2cccc(OC)c2C1 (stereo not drawn) | 30.2 µM |
| CCCN1CCN(Cc2ccccc2)CC12COc1cccc(OC)c1C2 (stereo not drawn) | 38.9 µM |

More lines, in order of falling IC50, values ahead:

| IC50 | Compound |
| --- | --- |
| 468 µM | CCCN1CCN(CCC)C2(COc3cccc(OC)c3C2)C1 (stereo not drawn) |
| 30.9 µM | CCCN1CCN(CCCCN2C(=O)CC3(CCCC3)CC2=O)CC12COc1cccc(OC)c1C2 (stereo not drawn) |
| 10.5 µM | COc1cccc2c1CC1(CCCN1CCCCN1C(=O)CC3(CCCC3)CC1=O)CO2 (racemic) [(+/-) 8-{4-[5-methoxyspiro[3,4-dihydro-2H-chromene-3,2'-(tetrahydro-1'H-pyrrole)]-1-yl]butyl}-8-azaspiro[4.5]decane-7,9-dione] |
| 1.23 µM | O=C1CC2(CCCC2)CC(=O)N1CCCCNCC1COc2ccccc2C1 (stereo not drawn) |
